Experimental data as given in PubChem BioAssay AID248 (DTP/NCI, 2004).
Inconclusive results and toxic doses are left out.

Test system: L1210 leukemia ip in BDF1 mice, survival T/C
Assay: NCI In Vivo Anticancer Drug Screen. Data for tumor model L1210 Leukemia (intraperitoneal) in B6D2F1 (BDF1) mice
Conditions: higher = longer survival
Method in brief: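 Value reflects the ratio of survival in compound-treated mice to survival in vehicle-treated controls, with both groups carrying the same transplanted tumor.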

[1] = endpoint: mean survival time, dose: 100.0 mg/kg/injection, schedule: Q01DX001 (ip), vehicle: carboxymethylcellulose (CMC)
[2] = endpoint: mean survival time, dose: 200.0 mg/kg/injection, schedule: Q01DX001 (ip), vehicle: carboxymethylcellulose (CMC)
[3] = endpoint: mean survival time, dose: 400.0 mg/kg/injection, schedule: Q01DX001 (ip), vehicle: carboxymethylcellulose (CMC)
[4] = endpoint: mean survival time, dose: 50.0 mg/kg/injection, schedule: Q01DX001 (ip), vehicle: saline
[5] = endpoint: mean survival time, dose: 100.0 mg/kg/injection, schedule: Q01DX001 (ip), vehicle: saline
[6] = endpoint: mean survival time, dose: 200.0 mg/kg/injection, schedule: Q01DX001 (ip), vehicle: saline
[7] = endpoint: mean survival time, dose: 400.0 mg/kg/injection, schedule: Q01DX001 (ip), vehicle: saline
[8] = endpoint: mean survival time, dose: 100.0 mg/kg/injection, schedule: Q04DX002 (ip), vehicle: Klucel (hydroxypropylcellulose) (HPC)
[9] = endpoint: mean survival time, dose: 400.0 mg/kg/injection, schedule: Q04DX002 (ip), vehicle: Klucel (hydroxypropylcellulose) (HPC)

CC1CC(C)(O)CC(C(O)CC2CC(=O)NC(=O)C2)C1=O (stereo unspecified)
T/C (endpoint: mean survival time, dose: 0.02 mg/kg/injection, schedule: Q03HX024 (ip), vehicle: saline): 109 % of control | T/C (endpoint: mean survival time, dose: 0.03 mg/kg/injection, schedule: Q01DX Z (ip), vehicle: other): 118 % of control | T/C (endpoint: mean survival time, dose: 0.04 mg/kg/injection, schedule: Q03HX016 (ip), vehicle: saline): 111 % of control | T/C (endpoint: mean survival time, dose: 0.04 mg/kg/injection, schedule: Q03HX024 (ip), vehicle: saline): 117 % of control | T/C (endpoint: mean survival time, dose: 0.08 mg/kg/injection, schedule: Q01DX005 (ip), vehicle: saline): 120 % of control | T/C (endpoint: mean survival time, dose: 0.08 mg/kg/injection, schedule: Q01DX005 (iv), vehicle: saline): 108 % of control | T/C (endpoint: mean survival time, dose: 0.08 mg/kg/injection, schedule: Q01DX009 (ip), vehicle: saline): 155 % of control | T/C (endpoint: mean survival time, dose: 0.08 mg/kg/injection, schedule: Q01DX Z (ip), vehicle: methylcellulose (MC)): 123 % of control | T/C (endpoint: mean survival time, dose: 0.08 mg/kg/injection, schedule: Q01DX Z (ip), vehicle: other): 119 % of control | T/C (endpoint: mean survival time, dose: 0.08 mg/kg/injection, schedule: Q03HX016 (ip), vehicle: saline): 117 % of control | T/C (endpoint: mean survival time, dose: 0.15 mg/kg/injection, schedule: Q01DX005 (iv), vehicle: saline): 115 % of control | T/C (endpoint: mean survival time, dose: 0.15 mg/kg/injection, schedule: Q01DX009 (ip), vehicle: saline): 87 % of control | T/C (endpoint: mean survival time, dose: 0.15 mg/kg/injection, schedule: Q01DX009 (oral), vehicle: saline): 109 % of control | T/C (endpoint: mean survival time, dose: 0.15 mg/kg/injection, schedule: Q03HX024 (ip), vehicle: saline): 155 % of control | T/C (endpoint: mean survival time, dose: 0.3 mg/kg/injection, schedule: Q01DX001 (iv), vehicle: saline): 105 % of control | T/C (endpoint: mean survival time, dose: 0.3 mg/kg/injection, schedule: Q01DX009 (oral), vehicle: saline): 117 % of control | T/C (endpoint: mean survival time, dose: 0.3 mg/kg/injection, schedule: Q01DX Z (ip), vehicle: methylcellulose (MC)): 155 % of control | T/C (endpoint: mean survival time, dose: 0.3 mg/kg/injection, schedule: Q01DX Z (ip), vehicle: other): 157 % of control | T/C (endpoint: mean survival time, dose: 0.3 mg/kg/injection, schedule: Q03HX016 (ip), vehicle: saline): 161 % of control | T/C (endpoint: mean survival time, dose: 0.3 mg/kg/injection, schedule: Q03HX024 (ip), vehicle: saline): 157 % of control | T/C (endpoint: mean survival time, dose: 0.3 mg/kg/injection, schedule: Q11DX001 (ip), vehicle: saline): 105 % of control | T/C (endpoint: mean survival time, dose: 0.3 mg/kg/injection, schedule: Q14DX008 (ip), vehicle: saline): 112 % of control | T/C (endpoint: mean survival time, dose: 0.6 mg/kg/injection, schedule: Q01DX001 (iv), vehicle: saline): 110 % of control | T/C (endpoint: mean survival time, dose: 0.6 mg/kg/injection, schedule: Q01DX005 (iv), vehicle: saline): 112 % of control | T/C (endpoint: mean survival time, dose: 0.6 mg/kg/injection, schedule: Q01DX009 (oral), vehicle: saline): 95 % of control | T/C (endpoint: mean survival time, dose: 0.6 mg/kg/injection, schedule: Q01DX Z (ip), vehicle: methylcellulose (MC)): 92 % of control | T/C (endpoint: mean survival time, dose: 0.6 mg/kg/injection, schedule: Q08DX002 (ip), vehicle: saline): 124 % of control | T/C (endpoint: mean survival time, dose: 0.6 mg/kg/injection, schedule: Q11DX001 (ip), vehicle: saline): 114 % of control | T/C (endpoint: mean survival time, dose: 0.6 mg/kg/injection, schedule: Q14DX008 (ip), vehicle: saline): 116 % of control | T/C (endpoint: mean survival time, dose: 0.9 mg/kg/injection, schedule: Q01DX Z (ip), vehicle: other): 95 % of control | T/C (endpoint: mean survival time, dose: 1.2 mg/kg/injection, schedule: Q01DX001 (iv), vehicle: saline): 121 % of control | T/C (endpoint: mean survival time, dose: 1.2 mg/kg/injection, schedule: Q01DX005 (ip), vehicle: saline): 88 % of control | T/C (endpoint: mean survival time, dose: 1.2 mg/kg/injection, schedule: Q11DX001 (ip), vehicle: saline): 113 % of control | T/C (endpoint: mean survival time, dose: 1.2 mg/kg/injection, schedule: Q11DX001 (oral), vehicle: saline): 109 % of control | T/C (endpoint: mean survival time, dose: 1.2 mg/kg/injection, schedule: Q14DX008 (ip), vehicle: saline): 113 % of control | T/C (endpoint: mean survival time, dose: 1.35 mg/kg/injection, schedule: Q01DX Z (ip), vehicle: other): 87 % of control | T/C (endpoint: mean survival time, dose: 2.4 mg/kg/injection, schedule: Q01DX001 (iv), vehicle: saline): 118 % of control | T/C (endpoint: mean survival time, dose: 2.4 mg/kg/injection, schedule: Q04DX003 (ip), vehicle: saline): 154 % of control | T/C (endpoint: mean survival time, dose: 2.4 mg/kg/injection, schedule: Q11DX001 (ip), vehicle: saline): 112 % of control | T/C (endpoint: mean survival time, dose: 2.4 mg/kg/injection, schedule: Q11DX001 (oral), vehicle: saline): 101 % of control | T/C (endpoint: mean survival time, dose: 2.4 mg/kg/injection, schedule: Q14DX008 (ip), vehicle: saline): 108 % of control | T/C (endpoint: mean survival time, dose: 4.8 mg/kg/injection, schedule: Q11DX001 (ip), vehicle: saline): 108 % of control | T/C (endpoint: mean survival time, dose: 10.0 micrograms/kg/injection, schedule: Q01DX Z (ip), vehicle: other): 100 % of control | T/C (endpoint: mean survival time, dose: 20.0 micrograms/kg/injection, schedule: Q01DX Z (ip), vehicle: other): 102 % of control | T/C (endpoint: mean survival time, dose: 40.0 micrograms/kg/injection, schedule: Q01DX Z (ip), vehicle: other): 110 % of control | T/C (endpoint: mean survival time, dose: 80.0 micrograms/kg/injection, schedule: Q01DX Z (ip), vehicle: other): 115 % of control | T/C (endpoint: median survival time, dose: 2.0 mg/kg/injection, schedule: Q04DX003 (ip), vehicle: saline): 154 % of control

O=c1oc2c(CN3CCOCC3)c(O)ccc2c2c1CCCC2
T/C [1]: 86 % of control | T/C [2]: 96 % of control | T/C [3]: 91 % of control

CC(C)(C)P1(=O)OCC(c2ccccc2)CO1 (stereo unspecified)
T/C (endpoint: mean survival time, dose: 100.0 mg/kg/injection, schedule: Q04DX003 (ip), vehicle: other): 101 % of control | T/C (endpoint: mean survival time, dose: 200.0 mg/kg/injection, schedule: Q04DX003 (ip), vehicle: other): 107 % of control

CN=NNc1nc[nH]c1C(=O)OC
T/C (endpoint: mean survival time, dose: 50.0 mg/kg/injection, schedule: Q01DX001 (ip), vehicle: carboxymethylcellulose (CMC)): 118 % of control | T/C [1]: 118 % of control | T/C [2]: 118 % of control | T/C [3]: 113 % of control

O=C(CC(=O)c1ccccc1)Nc1cccc([N+](=O)[O-])c1
T/C (endpoint: mean survival time, dose: 100.0 mg/kg/injection, schedule: Q04DX003 (ip), vehicle: saline with Tween-80): 90 % of control | T/C (endpoint: mean survival time, dose: 200.0 mg/kg/injection, schedule: Q04DX003 (ip), vehicle: saline with Tween-80): 86 % of control | T/C (endpoint: mean survival time, dose: 400.0 mg/kg/injection, schedule: Q04DX003 (ip), vehicle: saline with Tween-80): 86 % of control

CN(C)c1ncnc2c1ncn2C1OC(CO)C(N)C1O (stereo unspecified)
T/C (endpoint: mean survival time, dose: 6.25 mg/kg/injection, schedule: Q01DX009 (ip), vehicle: saline): 111 % of control | T/C (endpoint: mean survival time, dose: 12.5 mg/kg/injection, schedule: Q01DX009 (ip), vehicle: saline): 111 % of control | T/C (endpoint: mean survival time, dose: 25.0 mg/kg/injection, schedule: Q01DX009 (ip), vehicle: saline): 117 % of control | T/C [4]: 109 % of control | T/C [5]: 109 % of control | T/C [6]: 109 % of control | T/C [7]: 115 % of control

N/N=C(\N)c1ccc(NC(=O)c2ccc(C(=O)Nc3ccc(/C(N)=N/N)cc3)cc2)cc1
T/C (endpoint: mean survival time, dose: 15.0 mg/kg/injection, schedule: Q01DX Z (ip), vehicle: saline): 104 % of control | T/C (endpoint: mean survival time, dose: 30.0 mg/kg/injection, schedule: Q01DX Z (ip), vehicle: saline): 100 % of control | T/C (endpoint: mean survival time, dose: 60.0 mg/kg/injection, schedule: Q01DX Z (ip), vehicle: saline): 103 % of control | T/C (endpoint: mean survival time, dose: 120.0 mg/kg/injection, schedule: Q01DX Z (ip), vehicle: saline): 97 % of control

O=c1c(=NNc2ccccc2)c(=O)c2ccccc12
T/C [4]: 94 % of control | T/C [5]: 94 % of control | T/C [6]: 88 % of control | T/C [7]: 102 % of control

O=C(O)c1cc(Br)ccc1I
T/C [8]: 104 % of control | T/C (endpoint: mean survival time, dose: 200.0 mg/kg/injection, schedule: Q04DX002 (ip), vehicle: Klucel (hydroxypropylcellulose) (HPC)): 97 % of control | T/C [9]: 101 % of control

NC(=O)c1cc(Cl)cc(Cl)c1N1CC[N+](CCCl)=N1
T/C (endpoint: mean survival time, dose: 100.0 mg/kg/injection, schedule: Q01DX001 (ip), vehicle: saline with Tween-80): 103 % of control

O=C(Nc1ccc(Cl)cc1C(=O)c1ccccc1)c1ccc(Cl)cc1Cl
T/C [8]: 103 % of control | T/C [9]: 89 % of control

COP(=O)(OC)C1C2CC3C(C2)C31 (stereo unspecified)
T/C (endpoint: mean survival time, dose: 100.0 mg/kg/injection, schedule: Q04DX003 (ip), vehicle: acetone): 103 % of control | T/C (endpoint: mean survival time, dose: 200.0 mg/kg/injection, schedule: Q04DX003 (ip), vehicle: acetone): 97 % of control | T/C (endpoint: mean survival time, dose: 400.0 mg/kg/injection, schedule: Q04DX003 (ip), vehicle: acetone): 100 % of control

O=c1[nH]c2cc(Br)ccc2c2ccccc12
T/C [1]: 95 % of control | T/C [2]: 101 % of control | T/C [3]: 94 % of control
